Patent US8383637B2, “2-amino-quinazoline derivatives useful as inhibitors of β-secretase (BACE)” (Jansssen Pharmaceutica N.V., priority 2004, dated 2013)

Key:
[1] = molecular target: T1, β-secretase(BACE) (Homo sapiens, UniProt P56817); assay: BACE Assay-2 (FS1 substrate, IC50 and Ki); format: biochemical; settings: procedure of Example 159, FS1 substrate; read-out: Ki μM (159)
T1 construct: purchased Panvera
Experimental: The FS1-substrate stock solution was prepared in DMSO as a 10 mg/mL solution. The FS1-substrate working solution was prepared by diluting the 10 mg/mL stock solution with substrate assay buffer to a final concentration of 300 μg/mL. The β-secretase (BACE) working solution was prepared by diluting a 0.83 mg/mL BACE stock solution with enzyme assay buffer to a final concentration of 4 μg/mL.
Test compounds were dissolved in DMSO at 10 mM.
The procedure for this assay was as follows: 15 μL of BACE working solution was pipetted into each well of a 96-well plate. To each well was then pipetted 2 μL of test compound at the selected concentration. Test compound and BACE were then mixed with a pipettor and incubated for 20 min at room temperature. To each well was then added 10 μL of the FS1 substrate working solution.
The procedure for the positive control was as follows: 15 μL of BACE working solution was pipetted into each well to be used as a positive control. To each well was then pipetted 2 μL of vehicle. Vehicle and BACE were then mixed with a pipettor and incubated for 20 min at room temperature. To each well was then added 10 μL of the FS1 substrate working solution.
For test compounds, measured at multiple concentrations, the measured T0 and T60 values were used to calculate an IC50 value using Graphpad Software (or PIR). For test compounds, Ki inhibition was determined as follows: For each compound concentration and positive control, rate of cleavage of substrate (Vi, where i=compound concentration in μM) was determined as Δ Fluorescence/Δ time (min). Cleavage rates (Vi) were plotted as a function of inhibitor concentration in μM [I]. The Ki was then determined by fitting the following equation to the graph of [I] vs Vi Y=aVmax/(50+24*(1+X/Ki)),

[2] = molecular target: T1, β-secretase(BACE); assay: BACE FS1% Inhibition Assay; format: biochemical; settings: FS1 substrate; for inhibition at 0.3 µM / % Inhibition (FS) 0.3 μM: 0.3 μM test compound; for inhibition at 0.3 µM: read-out: % Inhibition (FS) 0.3 μM; for inhibition at 1 µM: read-out: % Inhibition (FS) 1 μM; for inhibition at 3 µM: read-out: % Inhibition (FS) 3 μM
Summary of the method: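 Percent inhibition at each tested concentration, referenced to enzyme-free blank and vehicle-only positive control. Reaction: compound and BACE (4 μg/mL working stock) mixed 20 min at room temperature before FS1 substrate (300 μg/mL working stock), then 1 h at room temperature.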

T1 sequence (P56817 46-501): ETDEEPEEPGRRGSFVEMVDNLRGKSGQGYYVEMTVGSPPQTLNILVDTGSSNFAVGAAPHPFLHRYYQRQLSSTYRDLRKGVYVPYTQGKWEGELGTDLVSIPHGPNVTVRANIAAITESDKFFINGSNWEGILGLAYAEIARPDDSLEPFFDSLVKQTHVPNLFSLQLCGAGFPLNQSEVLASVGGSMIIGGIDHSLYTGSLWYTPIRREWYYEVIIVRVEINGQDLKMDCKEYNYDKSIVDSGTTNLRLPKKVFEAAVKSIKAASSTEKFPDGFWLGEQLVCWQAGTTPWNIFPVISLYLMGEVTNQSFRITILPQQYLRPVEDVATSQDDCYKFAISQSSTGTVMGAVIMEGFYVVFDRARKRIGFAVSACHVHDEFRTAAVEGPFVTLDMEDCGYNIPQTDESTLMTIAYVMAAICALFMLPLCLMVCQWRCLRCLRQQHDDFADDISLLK

Row | Ki [1] | inhibition at 0.3 µM [2] | inhibition at 1 µM ([2]; 1 μM test compound) | inhibition at 3 µM ([2]; 3 μM test compound) | % Inhibition (FS) 0.3 μM [2] | % Inhibition (FS) 1 μM ([2]; 1 μM test compound, 1 µM) | % Inhibition (FS) 3 μM ([2]; 3 μM test compound, 3 µM) | Compound
1 | 0.53 µM | < 30% | 34% | 86% | – | – | – | CN(CCN1Cc2cc(Oc3ccccc3)ccc2N=C1N)C(=O)C1CCCCC1 [Compound 426, Cyclohexanecarboxylic acid [2-(2-amino-6-phenoxy-4H-quinazolin-3-yl)-ethyl]-methyl-amide]
2 | 0.13 µM | 41% | 66% | 110% | – | – | – | NC1=Nc2ccc(-c3ccccc3)cc2CN1CCNC(=O)C1CCCCC1 [Compound 515]
3 | 0.076 µM | 57% | 86% | 116% | – | – | – | NC1=Nc2ccc(-c3ccccc3F)cc2CN1CCNC(=O)C1CCCCC1 [Compound 535]
4 | 0.086 µM | 61% | 83% | 118% | – | – | – | NC1=Nc2ccc(-c3ccccc3Cl)cc2CN1CCNC(=O)C1CCCCC1 [Compound 536]
5 | 0.041 µM | 83% | 106% | 125% | – | – | – | Cc1ccccc1-c1ccc2c(c1)CN(CCNC(=O)C1CCCCC1)C(N)=N2 [Compound 537]
6 | 0.44 µM | < 30% | 53% | 100% | – | – | – | NC1=Nc2ccc(-c3ccccc3O)cc2CN1CCNC(=O)C1CCCCC1 [Compound 538]
7 | 0.14 µM | 55% | 77% | 118% | – | – | – | COc1cccc(F)c1-c1ccc2c(c1)CN(CCNC(=O)C1CCCCC1)C(N)=N2 [Compound 545]
8 | 0.18 µM | < 30% | – | – | 31% | – | – | NC1=Nc2ccc(-c3ccccc3)cc2CN1CCNC(=O)CC1CCCC1 [Compound 578]
9 | 0.49 µM | 40% | 56% | 86% | – | – | – | NC1=Nc2ccc(-c3cccc(CO)c3)cc2CN1CCNC(=O)CC1CCCC1 [Compound 583]
10 | 0.027 µM | – | – | – | 105% | 115% | 121% | CCCC(CNC(=O)C1CCCCC1)N1Cc2cc(Oc3ccccc3)ccc2N=C1N (stereo not drawn) [Compound 601]
11 | 0.076 µM | 75% | 106% | 119% | – | – | – | COc1ccccc1-c1ccc2c(c1)CN(CCC(=O)NC1CCCCC1)C(N)=N2 [Compound 610]
12 | 0.27 µM | < 30% | 54% | 95% | – | – | – | NC1=Nc2ccc(-c3cccc(Cl)c3)cc2CN1CCNC(=O)C1CCCCC1 [Compound 625]
13 | 0.16 µM | 39% | 75% | 105% | – | – | – | Cc1cccc(-c2ccc3c(c2)CN(CCNC(=O)C2CCCCC2)C(N)=N3)c1 [Compound 627]
14 | 0.13 µM | < 30% | 72% | 102% | – | – | – | NC1=Nc2ccc(-c3c(F)cccc3F)cc2CN1CCNC(=O)C1CCCCC1 [Compound 629]
15 | 0.033 µM | 79% | 100% | 113% | – | – | – | CC(C)CCC(=O)NCCN1Cc2cc(-c3ccccc3F)ccc2N=C1N [Compound 647]
16 | 0.046 µM | 83% | 102% | 111% | – | – | – | CC(C)CCC(=O)NCCN1Cc2cc(-c3ccccc3Cl)ccc2N=C1N [Compound 654]

Further lines, the compound ahead of its results:

Row | Compound | Ki [1] | inhibition at 0.3 µM [2] | inhibition at 1 µM ([2]; 1 μM test compound) | inhibition at 3 µM ([2]; 3 μM test compound) | % Inhibition (FS) 0.3 μM [2] | % Inhibition (FS) 1 μM ([2]; 1 μM test compound, 1 µM) | % Inhibition (FS) 3 μM ([2]; 3 μM test compound, 3 µM)
17 | CN(C(=O)c1ccc(CN2Cc3cc(Oc4ccccc4)ccc3N=C2N)o1)C1CCCCC1 [Compound 424, 5-(2-Amino-6-phenoxy-4H-quinazolin-3-ylmethyl)-furan-2-carboxylic acid cyclohexyl-methyl-amide] | 0.4 µM | < 30% | 50% | 94% | – | – | –
18 | CN(CCCN1Cc2cc(Oc3ccccc3)ccc2N=C1N)C1CCCCC1 [Compound 428, 3-[3-(Cyclohexyl-methyl-amino)-propyl]-6-phenoxy-3,4-dihydro-quinazolin-2-ylamine] | 0.23 µM | < 30% | 60% | 98% | – | – | –
19 | CN(C(=O)c1cccc(CN2Cc3cc(Nc4ccccc4)ccc3N=C2N)c1)C1CCCCC1 [Compound 432] | 0.86 µM | < 30% | 41% | 84% | – | – | –
20 | CC(C)[C@@H](CCC(=O)N(C)C1CCCCC1)N1Cc2cc(Oc3ccccc3)ccc2N=C1N [Compound 444] | 0.58 µM | < 30% | < 30% | 30% | – | – | –
21 | CN(C(=O)c1ccnc(CN2Cc3cc(Oc4ccccc4)ccc3N=C2N)c1)C1CCCCC1 [Compound 508, 2-(2-Amino-6-phenoxy-4H-quinazolin-3-ylmethyl)-N-cyclohexyl-N-methyl-isonicotinamide] | 0.15 µM | 31% | 74% | 113% | – | – | –
22 | CC1CCCCC1NC(=O)CCN1Cc2cc(Oc3ccccc3)ccc2N=C1N (stereo not drawn) [Compound 511] | 0.1 µM | 34% | 85% | 113% | – | – | –
23 | CN(C(=O)c1cccc(C(C2CCCCC2)N2Cc3cc(Oc4ccccc4)ccc3N=C2N)c1)C1CCCCC1 (stereo not drawn) [Compound 534] | 0.18 µM | 54% | 103% | 126% | – | – | –
24 | COc1ccccc1-c1ccc2c(c1)CN(CCC(=O)NC1C3CC4CC(C3)CC1C4)C(N)=N2 (stereo not drawn) [Compound 556] | 0.044 µM | 103% | 118% | 126% | – | – | –
25 | CN(C(=O)CC[C@@H](CO)N1Cc2cc(Oc3ccccc3)ccc2N=C1N)C1CCCCC1 [Compound 558, (S)-enantiomer of 4-(2-Amino-6-phenoxy-4H-quinazolin-3-yl)-5-hydroxy-pentanoic acid cyclohexyl-methyl-amide] | 0.16 µM | 42% | 92% | 115% | – | – | –
26 | CC(C)[C@H](CNC(=O)C1CCCCC1)N1Cc2cc(Oc3ccccc3)ccc2N=C1N [Compound 561] | 0.016 µM | 114% | 118% | 125% | – | – | –
27 | CC(C)CC(=O)NC[C@@H](C(C)C)N1Cc2cc(Oc3ccccc3)ccc2N=C1N [Compound 563] | 0.02 µM | 101% | 119% | 127% | – | – | –
28 | CONC1=Nc2ccc(-c3ccccc3OC)cc2CN1Cc1cccc(C(=O)N(C)C2CCCCC2)c1 [Compound 605, N-Cyclohexyl-3-[2-methoxyamino-6-(2-methoxy-phenyl)-4H-quinazolin-3-ylmethyl]-N-methyl-benzamide] | 0.54 µM | 47% | 72% | 111% | – | – | –
29 | CN(C(=O)CCN1Cc2cc(Oc3ccccc3)ccc2N=C1N)C1C2CC3CC(C2)CC1C3 (stereo not drawn) [Compound 618] | 0.19 µM | < 30% | 70% | 104% | – | – | –
30 | CN(C(=O)CCC(C1CCOCC1)N1Cc2cc(Oc3ccccc3)ccc2N=C1N)C1CCCCC1 (stereo not drawn) [Compound 619] | 0.011 µM | 119% | 118% | 125% | – | – | –
31 | CN(C(=O)CCC(C1CCC(O)CC1)N1Cc2cc(Oc3ccccc3)ccc2N=C1N)C1CCCCC1 (stereo not drawn) [Compound 632, 4-(2-Amino-6-phenoxy-4H-quinazolin-3-yl)-N-cyclohexyl-4-(4-hydroxy-cyclohexyl)-N-methyl-butyramide] | 0.0084 µM | 115% | 118% | 117% | – | – | –
32 | CN(C(=O)CC[C@@H](C(=O)N(C)C1CCCCC1)N1Cc2cc(Oc3ccccc3)ccc2N=C1N)C1CCCCC1 [Compound 634, (S)-enantiomer of 2-(2-Amino-6-phenoxy-4H-quinazolin-3-yl)-pentanedioic acid bis-(cyclohexyl-methyl-amide)] | 0.054 µM | 46% | 88% | 114% | – | – | –
33 | NC1=Nc2ccc(-c3ccccc3F)cc2CN1CCC(=O)NC1C2CC3CC(C2)CC1C3 (stereo not drawn) [Compound 635] | 0.014 µM | 104% | 115% | 119% | – | – | –
34 | CN(C(=O)CC[C@@H](C1CCCCC1)N1Cc2cc(Oc3ccccc3)ccc2N=C1N)C1CCOCC1 [Compound 638] | 0.23 µM | 74% | 101% | 116% | – | – | –
